Assay results published in PMC10458458, “Characterization of Anticancer Effects of the Analogs of DJ4, a Novel Selective Inhibitor of ROCK and MRCK Kinases” (Pharmaceuticals, 2023).

Experiments:
A375M = assay: MTT cell growth assay, 48 h; format: cell-based; conditions: Homo sapiens, 2000 cells/well, ±SE, read-out: IC50 from MTT assays
Experimental: (§1) However, as the concentration increased from 2.5 µM onwards, the effect was reversed. Similarly, DJ-Morpholine decreased the cell growth by ~30% at 0.6215 µM, while the effect remained saturated as the concentration increased. This trend was also observed in A549 lung cancer and A375M melanoma cells.
(§2) Figure 7 DJ4 analogs reduce cell growth in melanoma, breast, and lung cancer cells. MTT assay was performed to evaluate the effect of DJ4 analogs on cell growth after 48 h of treatment. IC50 values were calculated with nonlinear least squares regression curve fit by GraphPad prism. […] The error bars indicate SD from triplicates of the experiment.
(§3) The cytotoxic effect of DJ4 was studied in H1299, H226, A549, H522, H23, and H460 non-small cell lung cancer cells. The cells were seeded into 96-well plates with confluence ([…]). The cells were further treated with DMSO or DJ4 for 72 h. To study the effects of analogs, A549, A375M, and MDA-MB-231 cells were plated with low density (2000 cells/well) in a 96-well plate and grown overnight at 37 °C (with 5% CO2). Cells were treated with the analogs at the concentration of 0–10 µM for 48 h. At the end of the treatment period, cells were incubated with a tetrazolium dye MTT (3-(4,5-dimethylthiazol-2-yl)-2,5-diphenyltetrazolium bromide) reagent (Sigma) at 37 °C for 3 h to develop formazan crystals. The media was siphoned off and crystals were dissolved in DMSO and mixed gently on rocker for 5 min. Absorbance was read at 570 nm and 630 nm (background) wavelength. IC50 values were calculated from non-linear regression curve fit by using GraphPad Prism 5.0 software.

A549 = assay: MTT cell growth assay, 48 h; format: cell-based; conditions: Homo sapiens; A549, 48 h, 2000 cells/well; ±SE; read-out: IC50 from MTT assays
Experimental: as §1, §2, §3

[1] = Solubility in 100% DMSO (observation); format: physicochemical
[2] = test system: MDA-MB-231 breast cancer cells; assay: Caspase 3/7 assay (Muse); format: cell-based, human; conditions: MDA-MB-231, 2.5 µM, 48 h (DMSO 6.2)
Experimental: Figure 8 DJ4 analogs induce cell cycle arrest and apoptotic cell death in MDA-MB-231 breast cancer cells. (A) DJ4 analogs induce cell cycle arrest in MDA-MB-231 breast cancer cells. To study the cell cycle arrest by DJ4 analogs, serum-starved cell cycle-synchronized MDA-MB-231 cells were treated with 2.5 µM concentration of each compound for 24 h and stained with propidium iodide. Treatment with all the analogs, except DJ-Morpholine, induced significant arrest of cells in G2/M phase of cell cycle. (B) Apoptotic cell death by DJ4 analogs was evaluated by measuring caspase 3/7 activation in breast cancer cells. Cells were treated with 2.5 µM concentration of each compound for 48 h and incubated with fluorescent dye. All the compounds except DJ-Morpholine induced significant apoptotic cell death. TEXT PRINTED IN THE PICTURE: (A) DMSO: G1 : 48.40%; S : 44%; G2/M: 7.60% | (A) DJ4: G1 : 27.41%; S : 38.58%; G2/M: 34.01% | (A) DJ-Allyl: G1 : 15.94%; S : 55.51%; G2/M: 28.54% | (A) DJE4: G1 : 19.14%; S : 58.48%; G2/M: 22.37% | (A) DJ110: G1 : 19.16%; S : 38.39%; G2/M: 42.51% | (A) DJ-Morpholine: G1 : 43.16%; S : 51.10%; G2/M: 5.74% | (B) DMSO: Dead 3.10 %; Apoptotic/Dead 4.40 %; 6.2; 1.75 % Apoptotic | (B) DJ4: Dead 5.45 %; Apoptotic/Dead 36.80 %; 52.9; 41.65 % Live; 16.10 % Apoptotic | (B) DJ-Allyl: Dead 3.05 %; Apoptotic/Dead 9.90 %; 18.1; 78.90 % Live; 8.15 % Apoptotic | (B) DJE4: Dead 1.85 %; Apoptotic/Dead 8.15 %; 13.4; 84.75 % Live; 5.25 % Apoptotic | (B) DJ110: Dead 9.05 %; Apoptotic/Dead 56.60 %; 64.4; 26.60 % Live; 7.75 % Apoptotic | (B) DJ-Morpholine: Dead 1.90 %; Apoptotic/Dead 5.00 %; 8.0; 90.10 % Live; 3.00 % Apoptotic DOUBTS OF THE COPYIST ABOUT THIS PICTURE: Panel A: the print is very small and blurred, so 3, 5, 6, 8 and 9 cannot be told apart with certainty in any of its values / A, DMSO: G1 48.40% or 46.40%; S 44% (a decimal part may be hidden); G2/M 7.60% or 7.80% / A, DJ4: G1 27.41%; S 38.58% or 38.98%; G2/M 34.01% uncertain / A, DJ-Allyl: G1 15.94%; S 55.51% or 53.51%; G2/M 28.54% or 26.54% uncertain / A, DJE4: G1 19.14%; S 58.48% or 58.46%; G2/M 22.37% uncertain / A, DJ110: G1 19.16% or 19.18%; S 38.39% or 38.33%; G2/M 42.51% uncertain / A, DJ-Morpholine: G1 43.16%; S 51.10%; G2/M 5.74% uncertain / B, DMSO, Live: the value is hidden by data points (only '.75 %' can be read, perhaps 90.75 or 89.75), so it is left out / B, DJ4, Live: partly hidden by data points, 41.65 is the best reading / B, DJ-Allyl, Live: partly hidden by data points, 78.90 or 76.90 / B, DJE4, Live: partly hidden by data points, 84.75 or 64.75 / B, DJ110, Live: partly hidden by data points, 26.60 or 28.60 / B, DJ-Morpholine, Live: partly hidden by data points, 90.10 or 20.10 / B: the large bold numbers (6.2, 52.9, 18.1, 13.4, 64.4, 8.0) are printed with no measure or unit
To determine whether the active analogs induce apoptotic cell death similar to the DJ4 parent compound, we treated MDA-MB-231 breast cancer cells with 2.5 µM concentration of all the analogs for 48 h (Figure 8). The cells were then analyzed for activation of caspase 3/7 (a marker for apoptotic cell death) and propidium iodide (a marker of cell membrane integrity) using the Muse^TM (EMD Millipore) two color bench-top flow cytometer. […]
To examine whether the selected compounds induce apoptosis, we treated MDA-MB-231 breast cancer cells with 5 µM of each compound. […] The data were quantified by using FlowJo software (version 10).

SMILES | IC50 (A375M) | IC50 (A549) | solubility in 100% DMSO [1] | apoptosis (Q2 + Q3), caspase 3/7 [2]
CC/N=C1\NC(=O)/C(=C\c2c[nH]c3ncccc23)S1 [DJE4] | 5.1 ± 0.32 µM | 6.1 ± 1.69 µM | much better solubility | 13.4%
O=C1N/C(=N\CCc2ccccc2)S/C1=C/c1c[nH]c2ncccc12 [DJ4] | 1.1 ± 0.15 µM | 5.4 ± 1.19 µM | much better solubility | 52.9%
O=C1N/C(=N\Cc2ccccc2)S/C1=C/c1c[nH]c2ncccc12 [DJ110] | 0.49 ± 0.03 µM | 0.88 ± 0.16 µM | poor solubility | 64.4%
O=C1N/C(=N\CCN2CCOCC2)S/C1=C/c1c[nH]c2ncccc12 [DJ-Morpholine] | > 10 µM | > 10 µM | poor solubility | 8%
C=CC/N=C1\NC(=O)/C(=C\c2c[nH]c3ncccc23)S1 [DJ-Allyl] | 4.7 ± 0.52 µM | 5 ± 2.2 µM | much better solubility | 18.1%
